Assay results from US5948798A, “Pyridiniminyl-1,2-benzisoxazoles and -benzisothiazoles” (Hoechst Marion Roussel, Inc., priority 1997, dated 1999).
Counter-ions that a name gives are not always drawn. Like-named read-outs stand apart in the source and are kept apart here.

Experiments:
Monoamine Oxidase A = target: T1, Monoamine Oxidase A (Rattus norvegicus, UniProt P21396); test: in vitro inhibition of monoamine oxidase assay (monoamine oxidase A); format: biochemical, rat (male Wistar, whole brain minus cerebellum); conditions: rat brain mitochondria, [3H]-5-hydroxytryptamine 200 μM, pH 7.4, 37° C., 30 min; log-probit
T1 construct: serves as the tissue source for mitochondrial monoamine oxidase; from tissue; host or cells: male Wistar rat whole brain minus cerebellum, 18,000 g pellet (P2)
T1 sequence (P21396 1-526): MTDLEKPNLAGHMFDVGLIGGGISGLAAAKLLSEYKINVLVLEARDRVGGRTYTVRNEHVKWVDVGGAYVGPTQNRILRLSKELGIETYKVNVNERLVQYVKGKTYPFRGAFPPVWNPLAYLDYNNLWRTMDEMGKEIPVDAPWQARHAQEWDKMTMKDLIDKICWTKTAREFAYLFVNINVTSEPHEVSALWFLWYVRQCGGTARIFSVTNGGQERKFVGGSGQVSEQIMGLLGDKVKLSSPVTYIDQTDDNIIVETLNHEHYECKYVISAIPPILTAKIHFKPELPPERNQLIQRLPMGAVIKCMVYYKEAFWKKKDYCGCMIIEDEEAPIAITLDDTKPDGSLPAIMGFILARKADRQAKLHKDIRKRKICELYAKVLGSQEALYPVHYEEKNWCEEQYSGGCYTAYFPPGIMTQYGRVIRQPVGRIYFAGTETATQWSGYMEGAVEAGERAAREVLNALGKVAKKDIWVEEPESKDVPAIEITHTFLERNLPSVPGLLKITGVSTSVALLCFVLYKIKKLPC
Text: (§1) In this assay, a modification of an assay described by M. V. Kindt, et al., Europ.
(§2) Male Wistar rats weighing 150-250 grams were sacrificed and the brains rapidly removed.

Monoamine Oxidase B = target: T2, Monoamine Oxidase B (Rattus norvegicus, UniProt P19643); test: in vitro inhibition of monoamine oxidase assay (monoamine oxidase B); format: biochemical, rat (male Wistar, whole brain minus cerebellum); conditions: rat brain mitochondria, [14C]-phenethylamine 200 μM, pH 7.4, 37° C., 30 min; log-probit
T2 construct: serves as the tissue source for mitochondrial monoamine oxidase; from tissue; host or cells: male Wistar rat whole brain minus cerebellum, 18,000 g pellet (P2)
T2 sequence (P19643 1-520): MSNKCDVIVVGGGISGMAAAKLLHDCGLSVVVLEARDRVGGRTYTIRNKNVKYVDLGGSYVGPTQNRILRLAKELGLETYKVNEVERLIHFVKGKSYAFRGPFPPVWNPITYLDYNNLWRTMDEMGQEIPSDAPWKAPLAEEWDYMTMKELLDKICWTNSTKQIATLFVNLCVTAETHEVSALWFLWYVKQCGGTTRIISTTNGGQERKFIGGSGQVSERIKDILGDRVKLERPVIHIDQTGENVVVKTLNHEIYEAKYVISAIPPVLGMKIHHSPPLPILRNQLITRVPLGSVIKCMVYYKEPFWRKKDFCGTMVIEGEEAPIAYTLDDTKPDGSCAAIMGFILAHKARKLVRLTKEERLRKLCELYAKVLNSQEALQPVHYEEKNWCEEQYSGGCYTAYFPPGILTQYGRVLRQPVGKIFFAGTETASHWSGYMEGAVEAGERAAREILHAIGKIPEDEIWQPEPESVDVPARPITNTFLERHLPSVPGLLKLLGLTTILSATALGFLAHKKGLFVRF
Text: as §1, §2

Acetylcholinesterase = target: T3, Acetylcholinesterase (Rattus norvegicus, UniProt P37136); test: in vitro inhibition of acetylcholinesterase assay; format: biochemical, rat (male Wistar, corpora striata)
T3 construct: corpora striata dissected free, weighted and homogenized in 19 volumes; from tissue; host or cells: male Wistar rat corpora striata, homogenate
T3 sequence (P37136 32-614): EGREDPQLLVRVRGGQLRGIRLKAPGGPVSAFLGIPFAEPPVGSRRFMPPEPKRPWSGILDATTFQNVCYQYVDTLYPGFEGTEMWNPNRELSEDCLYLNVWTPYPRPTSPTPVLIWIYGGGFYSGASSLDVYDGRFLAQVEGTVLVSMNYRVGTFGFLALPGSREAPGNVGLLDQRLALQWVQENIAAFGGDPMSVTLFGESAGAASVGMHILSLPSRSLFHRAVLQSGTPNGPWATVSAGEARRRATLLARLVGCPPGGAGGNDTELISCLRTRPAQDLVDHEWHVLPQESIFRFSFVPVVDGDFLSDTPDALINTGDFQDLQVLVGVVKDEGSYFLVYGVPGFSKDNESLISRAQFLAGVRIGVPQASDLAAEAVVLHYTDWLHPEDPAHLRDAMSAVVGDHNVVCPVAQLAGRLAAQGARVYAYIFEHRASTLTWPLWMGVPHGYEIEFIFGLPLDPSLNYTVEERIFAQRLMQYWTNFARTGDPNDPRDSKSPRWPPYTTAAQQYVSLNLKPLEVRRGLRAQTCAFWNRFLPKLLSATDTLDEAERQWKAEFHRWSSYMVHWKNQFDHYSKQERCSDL
Description: 1. 0.05M Phosphate Buffer (pH 7.2)
A solution of monobasic sodium phosphate monohydrate (6.85 g) in distilled water (100 mL) is added to a solution of dibasic sodium phosphate heptahydrate (13.4 g) and distilled water (100 mL) until a pH of 7.2 was attained. The solution was diluted 1 to 10 with distilled water.
3. 5,5-Dithiobisnitrobenzoic acid in Buffer
The 0.05M Phosphate Buffer (pH 7.2) was added to 5.5-dithiobisnitrobenzoic acid to a total volume of 100 mL. i.e., a quantity sufficient (gs) to 100 mL.
4. Stock Solution of Drug
A 2 millimolar stock solution of the test drug is prepared in a quantity sufficient of either acetic acid or dimethyl sulfoxide to volume with 5,5-Dithiobisnitrobenzene Acid in Buffer. Stock Solution of Drug is serially diluted (1:10) so that the final cuvette concentration is 10^-4 molar.
Male Wistar rats are decapitated, brains rapidly removed, corpora striata dissected free, weighted and homogenized in 19 volumes (approximately 7 mg protein/mL) of 0.05M phosphate Buffer (pH 7.2) using a Potter-Elvehjem homogenizer. A 25 μl aliquot of this suspension is added to 1 mL of the vehicle or various concentrations of the test drug and preincubated for 10 minutes at 37° C. Enzyme activity is measured with a Beckman DU-50 spectrophotometer with the following software and instrument settings:
6. Cuvettes--2 mL cuvettes using auto 6-sampler;
7. Blank--1 for each substrate concentration;
8. Interval time--15 seconds (15 or 30 seconds for kinetics);
9. Total time--5 minutes (5 to 10 minutes for kinetics);
13. Results--yes (gives slope); and
Reagents are added to the blank and sample cuvettes as follows: […]
Blank 0.8 mL 5.5-Dithiobisnitrobenzoic Acid
0.8 mL Substrate in Buffer
2. Control 0.8 mL 5.5-Dithiobisnitrobenzoic Acid/Enzyme
3. Drug 0.8 mL 5.5-Dithiobisnitrobenzoic Acid/Drug/Enzyme
Blank values are determined for each run to control for non-enzymatic hydrolysis of substrate and these values are automatically subtracted by the Kindata program available on kinetics soft-pac module. This program also calculates the rate of absorbance change for each cuvette.
Substrate concentration is 10 millimolar diluted 1:2 in assay yielding final concentration of 5 millimolar. 5,5-Dithiobisnitrobenzoic acid concentration is 0.5 millimolar yielding 0.25 millimolar final concentration. [formula]
IC50 values are calculated from log-probit analysis

SMILES | IC50 (Monoamine Oxidase A) | IC50 (Monoamine Oxidase B) | IC50 (Acetylcholinesterase) | IC50 (Acetylcholinesterase; rat corpora striata homogenate, pH 7.2, acetylthiocholine 5 mM final, 10 min preincubation at 37° C., log-probit, read-out: Inhibition of Acetylcholinesterase Activity IC50)
c1ccc(CCn2ccc(=Nc3noc4ccccc34)cc2)cc1 [3-[1-(2-Phenylethyl)-N-4(1H)-pyridiniminyl]-1,2-benzisoxazole hydrobromide] | 3 µM | 15.9 µM | – | –
c1ccc(CCCn2ccc(=Nc3noc4ccccc34)cc2)cc1 [3-[1-(3-Phenylpropyl)-N-4(1H)-pyridiniminyl]-1,2-benzisoxazole hydrobromide] | – | – | 0.65 µM | –
Fc1ccc(Cn2ccc(=Nc3noc4ccccc34)cc2)cc1 [3-[1-(4-Fluorophenyl)methyl-N-4(1H)-pyridiniminyl]-1,2-benzisoxazole hydrobromide] | – | – | – | 0.44 µM
c1ccc(Cn2ccc(=Nc3noc4ccccc34)cc2)cc1 [3-[1-Phenylmethyl-N-4(1H)-pyridiniminyl]-1,2-benzisoxazole hydrobromide] | 9 µM | 33.7 µM | 0.28 µM | –
CCCn1ccc(=Nc2noc3cc(Cl)ccc23)cc1 [6-Chloro-3-]1-propyl-N-4(1H)pyridiniminyl]-1,2-benzisoxazole hydrochloride] | 1.65 µM | 27.2 µM | – | –
COc1ccc2c(N=c3ccn(Cc4ccccc4)cc3)noc2c1 [6-Methoxy-3-[1-phenylmethyl-N-4(1H)-pyridiniminyl]-1,2-benzisoxazole hydrobromide] | 3 µM | 25.2 µM | 0.09 µM | –
